The values that follow come from patent publication US12171744B2, “Pharmaceutical combinations for the treatment of cancer” (Presage Biosciences, Inc., priority 2016, dated 2024).

Molecules are shown by their SMILES.

One assay concerns the target T1, CDK6 (Homo sapiens, UniProt Q00534).
T1 construct: purchased Reaction Biology Corp. (testing facility)
Put plainly: Kinase inhibition profiling (filter binding assay with γ-33P-ATP). It counts as biochemical. The procedure: For each kinase, an IC50 value were calculated from a 10-point concentration curve of the test article and converted to Ki values.

A further assay has as its system SUDHL4 model of DLBCL. The assay is described as follows: Xenograft tumor growth and Western blot of tumors. It counts as in vivo, NOD SCID mice. The protocol: Protein lysates were prepared by adding ice-cold 1×RIPA Buffer (from 10×, Millipore) with 1×-3× Halt protease and phosphatase inhibitor cocktail (100×, Pierce) to cell pellets, followed by pulse sonication (˜3-5 secs) three times. Lysates were cleared by centrifugation at 14K rpm for 15-20 mins and the supernatant (lysate) was collected for further analysis. To prepare lysates from cryopreserved xenograft tumor tissue, tissue was first homogenized using a hand-held tissue homogenizer (Cole Palmer) in above lysis buffer followed by pulse sonication and centrifugation as described above. Above steps were carried out under ice cold conditions. Protein samples were quantified using Bradford assay (Biorad) at 1:10 or higher dilutions using appropriate blank controls with 1×RIPA. […]
Immune deficient NOD SCID mice were implanted with the SUDHL4 model of DLBCL. […] Drug effects were assessed via tumor volume measurements twice weekly by a technician blinded to the treatment of each subject in the study. […]

The subject of a further assay is HCC1187 cells. The assay is described as follows: PCR assay of XBP1 transcription. The conditions noted are these: Voruciclib 1.5 uM, Bortezomib 10 nM, 4 hours. It counts as cell-based. The procedure:
1 ug of mRNA from each condition was used to generate cDNA using the High Capacity cDNA Reverse Transcription Kit (Applied Biosystems) and manufacturer's protocol. 100 ng cDNA was used to conduct a PCR assay to amplify XBP1 u or splice forms (Thermofisher PCR Supermix)—94 deg C. for 2 mins, (94 deg C. for 15 secs, 55 deg C. for 30 secs, 72 deg C. for 1 min)×30 cycles, 72 deg C. for 7 mins, hold at 4 deg C. XBP1 spiced and unspliced variants were detected.

In assay [1] the test system is RIVA (activated B-cell, or ABC) model of DLBCL. The assay is described as follows: Xenograft tumor growth. The conditions noted are these: Voruciclib 200 mpk, Venetoclax 1 mpk. It counts as in vivo, NOD SCID mice. The procedure: Immune deficient NOD SCID mice were implanted with the RIVA (activated B-cell, or ABC) model of DLBCL. The xenografted tumors were allowed to grow in the NOD SCID host until they reached 200 mm^3, at which point the xenografted animals were randomized into 4 study groups: 1. Vehicle control; 2. […] Venetoclax at 1 mpk; and 4. […] Venetoclax was dosed by oral gavage on days 1 and 4 of each weekly cycle. Drug effects were assessed via tumor volume measurements twice weekly by a technician blinded to the treatment of each subject in the study. N=5-6 animals per treatment arm.

The test system of a further assay is NudHL1 DLBCL xenografts. The assay is described as follows: CIVO microinjection, CC3 staining after 6 hours. The note with it: treated for 6 hours. It counts as in vivo, mice. The protocol:
Mice were enrolled into CIVO drug studies when the tumor volume reached approximately 1000 mm^3. Microinjection studies were performed using the CIVO device as previously described (Klinghoffer et al, Science Translational Medicine 2015) The device was configured with 6 injection needles set for a 6 mm injection length and a total volume delivery of 3 μl. A fluorescent tracking marker (FTM) was added to each drug reservoir in vehicle for delivery along with each drug or drug combination. […] Total amounts of agents injected are tabulated below in Table 4.
FIGS. 9A-9D depict cells that were treated as above and stained for cleaved caspase-3 (CC3) as a marker of apoptosis (shown in red).
FIGS. 10A-10D depict cells that were treated as above and stained for cleaved caspase-3 (CC3) as a marker of apoptosis (shown in red).

T1 sequence (Q00534 whole entry): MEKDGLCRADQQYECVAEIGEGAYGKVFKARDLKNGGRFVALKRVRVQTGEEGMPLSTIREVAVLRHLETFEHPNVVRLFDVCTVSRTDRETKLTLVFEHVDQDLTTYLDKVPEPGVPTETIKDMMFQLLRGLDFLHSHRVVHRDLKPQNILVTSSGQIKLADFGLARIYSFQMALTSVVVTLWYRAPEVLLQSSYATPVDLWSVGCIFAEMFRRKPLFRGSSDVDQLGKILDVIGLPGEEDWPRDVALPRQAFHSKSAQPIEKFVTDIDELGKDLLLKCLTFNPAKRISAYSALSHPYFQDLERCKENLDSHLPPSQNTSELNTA
T1 sequence (P24385 whole entry partner): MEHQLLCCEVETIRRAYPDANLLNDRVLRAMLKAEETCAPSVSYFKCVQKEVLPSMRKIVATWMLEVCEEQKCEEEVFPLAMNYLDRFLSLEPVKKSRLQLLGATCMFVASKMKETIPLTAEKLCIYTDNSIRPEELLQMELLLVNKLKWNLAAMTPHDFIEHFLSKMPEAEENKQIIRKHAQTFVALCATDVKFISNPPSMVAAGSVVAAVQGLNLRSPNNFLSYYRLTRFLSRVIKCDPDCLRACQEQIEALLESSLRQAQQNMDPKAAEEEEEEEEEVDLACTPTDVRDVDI

`CN1CC[C@@H](c2c(O)cc(O)c3c(=O)cc(-c4ccc(C(F)(F)F)cc4Cl)oc23)[C@@H]1CO` (relative stereo) [voruciclib, (+)-trans-2-(2-Chloro-4-trifluoromethylphenyl)-5,7-dihydroxy-8-(2-hydroxymethyl-1-methylpyrrolidin-3-yl)-chromen-4-one]: the potency result at CDK6 is recorded as “single digit”. Also, the normalized tumor volume entry in the assay on SUDHL4 model of DLBCL (Voruciclib 200 mpk, Venetoclax 25 mpk, oral gavage 6 days of the week) was “increase in tumor volume”. Also, the p53 entry in the assay on SUDHL4 model of DLBCL (Western blot of tumors, Day 26, 4 hours post treatment) is reported as “restores”. Besides, the “bortezomib-induced transcriptional induction of XBP1” value with HCC1187 cells is listed as “decreased”. Besides, the “tumor size (images)” value in assay [1] is listed as “smaller”. Moreover, the average tumor volume result in assay [1] (oral gavage) is “decrease in tumor volume”. Further, the CC3 expression result with NudHL1 DLBCL xenografts was “little to no increase”.
